Results reported in ChEMBL document CHEMBL3232824, “New synthesis of 3-(β-D-glucopyranosyl)-5-substituted-1,2,4-triazoles, nanomolar inhibitors of glycogen phosphorylase” (Eur J Med Chem, 2014).
The source made the active and inactive calls. No cut-off for these calls is given here.

Key:
[1] = target: T1, Glycogen phosphorylase, muscle form (Oryctolagus cuniculus, UniProt P00489)
T1 sequence (P00489 whole entry): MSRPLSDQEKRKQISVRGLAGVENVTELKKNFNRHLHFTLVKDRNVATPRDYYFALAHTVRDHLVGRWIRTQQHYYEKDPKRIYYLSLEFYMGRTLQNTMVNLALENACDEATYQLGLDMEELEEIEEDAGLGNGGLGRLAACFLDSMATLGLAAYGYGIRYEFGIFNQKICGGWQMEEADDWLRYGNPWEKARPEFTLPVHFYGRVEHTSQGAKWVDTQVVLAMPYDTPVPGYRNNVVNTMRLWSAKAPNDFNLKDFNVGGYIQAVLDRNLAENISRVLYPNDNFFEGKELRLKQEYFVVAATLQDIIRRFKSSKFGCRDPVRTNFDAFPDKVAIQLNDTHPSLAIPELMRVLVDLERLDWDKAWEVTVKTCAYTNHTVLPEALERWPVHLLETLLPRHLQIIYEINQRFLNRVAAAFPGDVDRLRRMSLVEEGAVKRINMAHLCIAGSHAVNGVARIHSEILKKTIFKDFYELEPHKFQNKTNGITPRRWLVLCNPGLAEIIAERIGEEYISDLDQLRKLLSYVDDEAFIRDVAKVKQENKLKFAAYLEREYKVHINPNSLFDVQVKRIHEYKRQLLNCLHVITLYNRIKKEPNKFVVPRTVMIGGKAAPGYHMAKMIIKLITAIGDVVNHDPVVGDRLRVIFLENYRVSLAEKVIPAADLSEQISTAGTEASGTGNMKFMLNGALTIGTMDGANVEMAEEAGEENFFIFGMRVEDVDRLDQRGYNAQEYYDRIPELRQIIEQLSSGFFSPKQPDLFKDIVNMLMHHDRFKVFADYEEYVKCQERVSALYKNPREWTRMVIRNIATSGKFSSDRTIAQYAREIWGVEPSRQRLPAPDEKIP

[2] = target: T2, Glycogen phosphorylase, muscle form (Oryctolagus cuniculus) (UniProt P00489); assay: Inhibition of rabbit muscle glycogen phosphorylase b at 625 uM
T2 sequence (whole entry): T1 sequence (P00489 whole entry)

[3] = target: T2, Glycogen phosphorylase, muscle form (Oryctolagus cuniculus); assay: Inhibition of rabbit muscle glycogen phosphorylase b

`OC[C@H]1O[C@@H](c2nc(-c3ccccc3)no2)[C@H](O)[C@@H](O)[C@@H]1O` showed a Ki [1] of 27 µM.
`Cc1cc(C)cc(-c2n[nH]c([C@@H]3O[C@H](CO)[C@@H](O)[C@H](O)[C@H]3O)n2)c1` gave a Ki [1] of 39.7 µM.
`O=[N+]([O-])c1ccc(-c2n[nH]c([C@@H]3O[C@H](CO)[C@@H](O)[C@H](O)[C@H]3O)n2)cc1` showed a Ki [1] of 33.5 µM.
In the case of `Cc1ccc(-c2n[nH]c([C@@H]3O[C@H](CO)[C@@H](O)[C@H](O)[C@H]3O)n2)cc1`, the Ki [1] is reported as 1.7 µM.
Work on `OC[C@H]1O[C@@H](c2nc(-c3ccccn3)n[nH]2)[C@H](O)[C@@H](O)[C@@H]1O` yielded a Ki [1] of 707 µM.
With `OC[C@H]1O[C@@H](c2nc(-c3ccc(C(F)(F)F)cc3)n[nH]2)[C@H](O)[C@@H](O)[C@@H]1O` the Ki [1] was 111 µM.
For `O=C(O)c1ccc(-c2n[nH]c([C@@H]3O[C@H](CO)[C@@H](O)[C@H](O)[C@H]3O)n2)cc1`, the inhibition [2] was “inactive”.
For `O=[N+]([O-])c1cc(-c2n[nH]c([C@@H]3O[C@H](CO)[C@@H](O)[C@H](O)[C@H]3O)n2)cc([N+](=O)[O-])c1`, the inhibition [2] was “inactive”.
With `CC(C)(C)c1n[nH]c([C@@H]2O[C@H](CO)[C@@H](O)[C@H](O)[C@H]2O)n1` the inhibition [2] was “inactive”.
For `OC[C@H]1O[C@@H](c2nc3cc4ccccc4cc3[nH]2)[C@H](O)[C@@H](O)[C@@H]1O`, the Ki [1] was 2.1 µM.
With `Cc1nc([C@@H]2O[C@H](CO)[C@@H](O)[C@H](O)[C@H]2O)no1` the inhibition [3] was “inactive”.
`Cc1n[nH]c([C@@H]2O[C@H](CO)[C@@H](O)[C@H](O)[C@H]2O)n1` showed a Ki [1] of 499 µM.
Compound `COc1ccc(-c2n[nH]c([C@@H]3O[C@H](CO)[C@@H](O)[C@H](O)[C@H]3O)n2)cc1` has a Ki [1] of 1.9 µM.
`CC(C)(C)c1ccc(-c2n[nH]c([C@@H]3O[C@H](CO)[C@@H](O)[C@H](O)[C@H]3O)n2)cc1` was tested, and the Ki [1] was 778 µM.
`Nc1cc(N)cc(-c2n[nH]c([C@@H]3O[C@H](CO)[C@@H](O)[C@H](O)[C@H]3O)n2)c1` was tested, and the Ki [1] was 14 µM.
`Nc1ccc(-c2n[nH]c([C@@H]3O[C@H](CO)[C@@H](O)[C@H](O)[C@H]3O)n2)cc1` was tested, and the Ki [1] was 0.67 µM.
`OC[C@H]1O[C@@H](c2nc(-c3ccc4ccccc4c3)no2)[C@H](O)[C@@H](O)[C@@H]1O` was tested, and the Ki [1] was 12 µM.
`OC[C@H]1O[C@@H](c2nc(-c3ccc(O)cc3)n[nH]2)[C@H](O)[C@@H](O)[C@@H]1O` showed a Ki [1] of 2.9 µM.
